Reference: PMC11219871, “Epigenetic-based differentiation therapy for Acute Myeloid Leukemia” (Nature Communications, 2024)
Read-outs that look alike come from different tables or passages of the source.

Key:
HDAC10 = target: T1, HDAC10 (Homo sapiens, UniProt Q969S8); experiment: HDAC assay (Eurofins); format: biochemical
T1 construct: purchased Eurofins (contracted assay service)
T1 sequence (Q969S8 1-669): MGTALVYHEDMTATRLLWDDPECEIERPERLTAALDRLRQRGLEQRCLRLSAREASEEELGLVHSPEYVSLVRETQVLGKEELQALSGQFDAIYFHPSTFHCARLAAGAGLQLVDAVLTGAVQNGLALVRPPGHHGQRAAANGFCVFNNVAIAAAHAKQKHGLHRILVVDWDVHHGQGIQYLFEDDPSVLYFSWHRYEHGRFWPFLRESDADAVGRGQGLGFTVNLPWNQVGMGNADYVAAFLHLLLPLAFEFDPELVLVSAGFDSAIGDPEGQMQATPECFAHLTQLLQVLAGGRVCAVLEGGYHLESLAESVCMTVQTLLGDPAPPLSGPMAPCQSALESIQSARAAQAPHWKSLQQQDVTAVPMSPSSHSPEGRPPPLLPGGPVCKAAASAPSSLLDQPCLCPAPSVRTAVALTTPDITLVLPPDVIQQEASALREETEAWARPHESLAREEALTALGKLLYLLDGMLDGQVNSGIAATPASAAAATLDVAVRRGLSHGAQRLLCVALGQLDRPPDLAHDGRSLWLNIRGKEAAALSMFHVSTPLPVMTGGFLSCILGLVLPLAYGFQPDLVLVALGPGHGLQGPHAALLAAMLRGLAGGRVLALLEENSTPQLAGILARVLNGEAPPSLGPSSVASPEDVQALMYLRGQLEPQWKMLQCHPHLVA

[1] = Liver microsomal stability; format: in vitro ADME; settings: read-out: Liver Microsomal Stability Estimation T1/2
Protocol: This study was conducted at Wuxi (http://www.wuxi.com/). […] A 5-μL aliquot of stock solution of test compound (10 mM; 100% DMSO) was diluted in 495 μL of […] (final concentration of 100 μM, 99% MeOH). Then, 50 μL of this intermediate solution was diluted in 450 μL of 100 mM potassium phosphate buffer to a concentration of 10 μM (working solution, 9.9% MeOH). The β-nicotinamide adenine dinucleotide phosphate reduced form (NADPH) regenerating system also contained tetrasodium salt, NADPH•4Na (Sigma, Cat.# No.00616). Human liver microsomes were obtained from Corning (Cat.#452117), and C57 mouse liver microsomes from Xenotech (Cat.#M5000), at a final concentration of 0.5 mg protein/mL. A volume of 10 μL of working solution of test and control compounds (testosterone, diclofenac and propafenone) and 80 μL/well microsome solution were added to a 96-well plate and incubated for 10 min at 37 °C. The reaction was started by the addition of 10 μL of NADPH regenerating system and stopped by the addition of 300 μL of stop solution (acetonitrile at 4 °C, including 100 ng/mL tolbutamide and 100 ng/mL of labetalol as internal standard) at different incubation times (0, 5, 10, 20, 30, and 60 min). Then, the samples were shaken for 10 min and centrifuged at 1699 g for 20 min at 4 °C. An aliquot of supernatant (100 μL) was transferred from each well and mixed with 300 μL of ultra-pure water before submitting to LC-MS/MS analysis. Concentrations of test and control compounds were quantified by LC-MS/MS using a peak area ratio of analyte/internal standard, and the percent loss of the parent compound was calculated at each time point to determine the half-life (t1/2, min). Experiments were performed in duplicate.

CACO-2 permeability = format: in vitro ADME; settings: human; for efflux ratio at 120 min, 2 µM: Caco-2, pH 7.4; for Papp A→B at 120 min, 2 µM: Caco-2, pH 7.4, A to B
Protocol: This study was conducted at Wuxi (http://www.wuxi.com/). Caco-2 cells (ATCC) were seeded onto polyethylene membranes in 96-well BD insert plates at 1 × 10^5 cells/cm^2, and the medium was changed every 4 days until the 21st to 28th day for confluent cell monolayer formation. Test compounds were diluted with transport buffer (HBSS with 10 mM HEPES at pH 7.4 ± 0.05) to a concentration of 2 µM (final DMSO concentration adjusted to <1%) and tested bi-directionally to investigate P-glycoprotein-mediated efflux in duplicate. Controls: digoxin (10 μM, bi-directionally), nanodolol and metoprolol (2 μM, apical, A, to basolateral, B). The permeation was assessed over a 120-minute incubation at 37 °C ± 1 °C and 5% CO2 at saturated humidity without shaking. Samples were mixed with acetonitrile containing internal standard and centrifuged at 1520 g for 10 min. Then, 100-μL aliquots of supernatant solutions were diluted with 100 μL of pure water. Concentrations of test and control compounds in starting solution, donor solution, and receiver solution were quantified by LC-MS/MS using a peak area ratio of analyte to internal standard. Permeation of lucifer yellow through the monolayer was measured to evaluate the cellular integrity. The results are the average of two biological replicates.

hERG potassium channels = target: T2, hERG potassium channels (Homo sapiens, UniProt Q12809); experiment: hERG blockade assay (whole-cell patch clamp, CHO cells); format: cell-based; settings: for IC50: read-out: hERG binding: IC50
T2 construct: host or cells: CHO cells
T2 sequence (Q12809 whole entry): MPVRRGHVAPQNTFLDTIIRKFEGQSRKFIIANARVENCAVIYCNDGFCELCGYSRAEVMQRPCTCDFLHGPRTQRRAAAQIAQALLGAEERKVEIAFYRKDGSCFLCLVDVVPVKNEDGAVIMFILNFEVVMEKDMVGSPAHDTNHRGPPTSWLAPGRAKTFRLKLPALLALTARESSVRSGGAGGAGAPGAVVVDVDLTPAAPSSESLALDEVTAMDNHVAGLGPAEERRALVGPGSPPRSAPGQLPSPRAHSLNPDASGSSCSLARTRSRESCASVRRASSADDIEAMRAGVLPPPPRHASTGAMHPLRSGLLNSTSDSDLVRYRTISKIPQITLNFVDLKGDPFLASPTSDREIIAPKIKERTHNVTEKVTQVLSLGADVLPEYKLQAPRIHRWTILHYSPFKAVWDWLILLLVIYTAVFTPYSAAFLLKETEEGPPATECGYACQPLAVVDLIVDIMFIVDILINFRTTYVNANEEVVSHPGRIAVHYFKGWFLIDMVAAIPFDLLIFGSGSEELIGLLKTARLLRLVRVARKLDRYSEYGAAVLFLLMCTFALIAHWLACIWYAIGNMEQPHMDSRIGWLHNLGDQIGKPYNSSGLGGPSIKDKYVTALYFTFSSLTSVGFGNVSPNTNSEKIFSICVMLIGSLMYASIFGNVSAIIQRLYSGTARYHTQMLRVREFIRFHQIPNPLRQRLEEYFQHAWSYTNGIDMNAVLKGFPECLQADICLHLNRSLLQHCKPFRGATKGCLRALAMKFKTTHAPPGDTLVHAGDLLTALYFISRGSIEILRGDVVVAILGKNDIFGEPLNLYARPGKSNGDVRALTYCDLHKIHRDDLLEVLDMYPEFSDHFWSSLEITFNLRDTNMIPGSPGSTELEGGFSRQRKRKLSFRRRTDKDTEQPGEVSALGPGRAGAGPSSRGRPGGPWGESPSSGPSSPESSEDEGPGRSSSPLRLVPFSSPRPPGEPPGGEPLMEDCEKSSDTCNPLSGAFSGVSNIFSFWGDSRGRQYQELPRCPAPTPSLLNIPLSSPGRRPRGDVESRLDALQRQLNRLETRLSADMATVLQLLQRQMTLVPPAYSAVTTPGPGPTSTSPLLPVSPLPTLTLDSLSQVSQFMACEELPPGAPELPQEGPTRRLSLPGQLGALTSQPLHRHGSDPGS
Protocol: This study was conducted at Wuxi (http://www.wuxi.com/), using CHO cells with stable expression of hERG potassium channels (Sophion Biosciences, Ballerup, Denmark). Cells were cultured (F12 medium, supplemented with 10% FBS, 1% Geneticin® selective antibiotic, 89 μg/mL hygromycin B) in a humidified and air-controlled (5% CO2) incubator at 37 °C ± 2 °C. Test compounds were diluted at different concentrations (0.3 μM–30μM), with a final DMSO concentration in an extracellular solution of <0.3%. The external solution consisted of 2 mM CaCl2, 1 mM MgCl2, 4 mM KCl, 145 mM NaCl, 10 mM glucose and 10 mM HEPES at pH 7.3–7.4. The internal solution consisted of 5.37 mM CaCl2, 1.75 mM MgCl2, 120 mM KCl, 10 mM HEPES, 5 mM EGTA and 4 mM Na2ATP at pH 7.2–7.3. The assay was performed at room temperature using the whole-cell patch clamp techniques controlled with Patchmaster Pro software. For quality control, minimum seal membrane resistance was set at 500 MOhms and the minimum/maximum specific hERG current (pre-compound) was 400 pA/3000 pA. A 100-nM amount of cisapride was used as the positive control to evaluate the reliability of the test system. Results are the average of two biological replicates.

Compound: COc1cc2nc(-c3cc(C)oc3C)cc(NCC3CCN(c4ncc(C(=O)NO)cn4)CC3)c2cc1OC [CM-1758, 2-[4-[[[2-(2,5-dimethyl-3-furyl)-6,7-dimethoxy-4-quinolyl]amino]methyl] -1-piperidyl]pyrimidine-5-carbohydroxamic acid]
- IC50 (HDAC10): 29 nM
- inhibition at 10 µM (HDAC10): 98%
- half-life at 1 µM ([1]; C57, mouse liver microsomes): 12.5 min
- half-life at 1 µM ([1]; human liver microsomes): 37.9 min
- efflux ratio at 120 min, 2 µM (CACO-2 permeability): > 1050
- Papp A→B at 120 min, 2 µM (CACO-2 permeability): < 0.01 ×10⁻⁶ cm/s
- hERG hill slope (hERG potassium channels): 0.99
- IC50 (hERG potassium channels): 4890 nM

Compound: COc1cc2nc(-c3ccc(C)o3)cc(NCC3CCN(c4ncc(C(=O)NO)cn4)CC3)c2cc1OC [CM-444, 2-[4-[[[6,7-dimethoxy-2-(5-methyl-2-furyl)-4-quinolyl]amino]methyl]-1-piperidyl]pyrimidine-5-carbohydroxamic acid]
- IC50 (HDAC10): 15 nM
- inhibition at 10 µM (HDAC10): 96%
- half-life at 1 µM ([1]; C57, mouse liver microsomes): 18.4 min
- half-life at 1 µM ([1]; human liver microsomes): 28.8 min
- efflux ratio at 120 min, 2 µM (CACO-2 permeability): > 1050
- Papp A→B at 120 min, 2 µM (CACO-2 permeability): < 0.01 ×10⁻⁶ cm/s
- hERG hill slope (hERG potassium channels): 1.33
- IC50 (hERG potassium channels): 16800 nM
